Drawing on patent US20260070945A1, “MACROCYCLIC IMMUNOMODULATORS” (Bristol-Myers Squibb Company, priority 2022, published 2026), this text covers IC50 for 10 compounds.

*1 amine or outer side, *2 acyl side, *3 side chain or, on linkers, in order; H or OH if unused. Where a SMILES comes first, the peptide text is derived from it. Bridges are numbered along the chain shown (N, C = ends). [ ]: non-standard residue; d: D form. The star is where a group is joined. ξ: configuration not given here. Phe(3-CF3) = N[C@@H](Cc1cccc(C(F)(F)F)c1)C(=O)O; Ala(morpholin-4-yl) = N[C@@H](CN1CCOCC1)C(=O)O; Phe(4-COOH) = N[C@@H](Cc1ccc(C(=O)O)cc1)C(=O)O; Bip = N[C@@H](Cc1ccc(-c2ccccc2)cc1)C(=O)O; γGlu = O=C(O)[C@H](CCC(=O)[*:2])N[*:1]; NH(CH2)12COOH = O=C(O)CCCCCCCCCCCCN*; ξγGlu = O=C(O)C(CCC(=O)[*:2])N[*:1]; Val(3-OH) = CC(C)(O)[C@H](N)C(=O)O; Cha = N[C@@H](CC1CCCCC1)C(=O)O; Cit = NC(=O)NCCC[C@H](N)C(=O)O; Carboxymethyl = O=C(O)C*; NMeA = CN[C@@H](C)C(=O)O; Dab = NCC[C@H](N)C(=O)O; AEEA = NCCOCCOCC(=O)O

For this assay, the target named is T1, PD-1/PD-L1 interaction (PE-labeled human PD-L1-Ig binding to Jurkat cell line over-expressing human PD-1) (Homo sapiens, UniProt Q15116).
T1 construct: expressed in transfected cells; host or cells: Jurkat
T1 sequence (Q15116 25-288): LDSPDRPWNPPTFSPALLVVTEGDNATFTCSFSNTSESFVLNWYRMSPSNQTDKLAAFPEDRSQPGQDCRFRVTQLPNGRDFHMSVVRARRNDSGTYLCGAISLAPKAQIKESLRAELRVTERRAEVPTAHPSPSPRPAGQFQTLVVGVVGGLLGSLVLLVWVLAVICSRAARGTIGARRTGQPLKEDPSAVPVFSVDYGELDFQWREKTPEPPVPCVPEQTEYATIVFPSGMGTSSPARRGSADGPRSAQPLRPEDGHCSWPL
The assay can be described thus: Jurkat-PD-1 Cell Binding High-Content Screening Assay (CBA). To be noted: Jurkat-hPD-1 cells, PE-labeled PD-L1-Ig 20 nM final; read-out: Jurkat HPD1 PDL1 IC50. In a few lines:
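In this imaging assay, cells in 10% FCS medium see compound for 2 h at 37 °C and then labeled ligand at 20 nM final for 1 h. Paraformaldehyde fixation, Hoechst 33342 staining and dPBS washes precede image capture.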
`CC(C)C[C@H]1NC(=O)[C@H](C)N(C)C(=O)[C@H](CCCNC(N)=O)NC(=O)[C@H](Cc2ccc(-c3ccccc3)cc2)NC(=O)[C@H](Cc2ccc(C(=O)O)cc2)NC(=O)[C@H](Cc2cccc(C(F)(F)F)c2)NC(=O)[C@H](CC(=O)O)NC(=O)[C@H](Cc2ccc(OCC(=O)O)cc2)NC(=O)[C@H](CN2CCOCC2)NC(=O)CSC[C@@H](C(=O)N[C@@H](CCN)C(=O)NCCOCCOCC(=O)N[C@@H](CCC(=O)NCCOCCOCC(=O)NCCCCCCCCCCCCC(=O)O)C(=O)O)NC(=O)[C@H](CO)NC(=O)[C@H](C(C)(C)O)NC(=O)[C@H](CC2CCCCC2)NC(=O)[C@H](CCN)NC1=O` [Example 1177] ({CH2CO}-[Ala(morpholin-4-yl)]Y(Carboxymethyl)D[Phe(3-CF3)][Phe(4-COOH)][Bip][Cit][NMeA][dL][Dab][Cha][Val(3-OH)]SC[Dab][AEEA][γGlu][AEEA]-{NH(CH2)12COOH}; thioether N-14): the IC50 was 27 nM. Consider `CC(=O)NCCCC[C@@H]1NC(=O)[C@H](C(C)(C)O)NC(=O)[C@H](CC2CCCCC2)NC(=O)[C@H](CCN)NC(=O)[C@@H](CC(C)C)NC(=O)[C@H](C)N(C)C(=O)[C@H](CCCNC(N)=O)NC(=O)[C@H](Cc2ccc(-c3ccccc3)cc2)NC(=O)[C@H](Cc2ccc(C(=O)O)cc2)NC(=O)[C@H](Cc2cccc(C(F)(F)F)c2)NC(=O)[C@H](CC(=O)O)NC(=O)[C@H](Cc2ccc(OCC(=O)O)cc2)NC(=O)[C@H](CN2CCOCC2)NC(=O)CSC[C@@H](C(=O)N[C@@H](CCN)C(=O)NCCOCCOCC(=O)NC(CCC(=O)NCCOCCOCC(=O)NCCCCCCCCCCCCC(=O)O)C(=O)O)NC1=O` (stereo partly drawn) [Example 1178] ({CH2CO}-[Ala(morpholin-4-yl)]Y(Carboxymethyl)D[Phe(3-CF3)][Phe(4-COOH)][Bip][Cit][NMeA][dL][Dab][Cha][Val(3-OH)]K(Ac)C[Dab][AEEA][ξγGlu][AEEA]-{NH(CH2)12COOH}; thioether N-14), for which the IC50 came out at 12.4 nM. Regarding `CC(C)C[C@H]1NC(=O)[C@H](C)N(C)C(=O)[C@H](Cc2ccc(C(=O)O)cc2)NC(=O)[C@H](Cc2ccc(-c3ccccc3)cc2)NC(=O)[C@H](Cc2ccc(C(=O)O)cc2)NC(=O)[C@H](Cc2cccc(C(F)(F)F)c2)NC(=O)[C@H](CC(=O)O)NC(=O)[C@H](Cc2ccc(OCC(=O)O)cc2)NC(=O)[C@H](CN2CCOCC2)NC(=O)CSC[C@@H](C(=O)N[C@@H](CCN)C(=O)NCCOCCOCC(=O)N[C@@H](CCC(=O)NCCOCCOCC(=O)NCCCCCCCCCCCCC(=O)O)C(=O)O)NC(=O)[C@H](CO)NC(=O)[C@H](C(C)(C)O)NC(=O)[C@H](CC2CCCCC2)NC(=O)[C@H](CCN)NC1=O` [Example 1180] ({CH2CO}-[Ala(morpholin-4-yl)]Y(Carboxymethyl)D[Phe(3-CF3)][Phe(4-COOH)][Bip][Phe(4-COOH)][NMeA][dL][Dab][Cha][Val(3-OH)]SC[Dab][AEEA][γGlu][AEEA]-{NH(CH2)12COOH}; thioether N-14), the concentration for half-maximal inhibition (IC50) was found to be 91.8 nM. With `COC[C@@H]1NC(=O)CSC[C@@H](C(=O)N[C@@H](CCN)C(=O)NCCOCCOCC(=O)N[C@@H](CCC(=O)NCCOCCOCC(=O)NCCCCCCCCCCCCC(=O)O)C(=O)O)NC(=O)[C@H](CO)NC(=O)[C@H](C(C)(C)O)NC(=O)[C@H](CC2CCCCC2)NC(=O)[C@H](CCN)NC(=O)[C@@H](CC(C)C)NC(=O)[C@H](C)N(C)C(=O)[C@H](CCCNC(N)=O)NC(=O)[C@H](Cc2ccc(-c3ccccc3)cc2)NC(=O)[C@H](Cc2ccc(C(=O)O)cc2)NC(=O)[C@H](Cc2cccc(C(F)(F)F)c2)NC(=O)[C@H](CC(=O)O)NC(=O)[C@H](Cc2ccc(OCC(=O)O)cc2)NC1=O` [Example 1181] ({CH2CO}-S(Me)Y(Carboxymethyl)D[Phe(3-CF3)][Phe(4-COOH)][Bip][Cit][NMeA][dL][Dab][Cha][Val(3-OH)]SC[Dab][AEEA][γGlu][AEEA]-{NH(CH2)12COOH}; thioether N-14), the concentration for half-maximal inhibition (IC50) worked out at 48.5 nM. Regarding `CC(C)C[C@H]1NC(=O)[C@H](C)N(C)C(=O)[C@H](CCC(N)=O)NC(=O)[C@H](Cc2ccc(-c3ccccc3)cc2)NC(=O)[C@H](Cc2ccc(C(=O)O)cc2)NC(=O)[C@H](Cc2cccc(C(F)(F)F)c2)NC(=O)[C@H](CC(=O)O)NC(=O)[C@H](Cc2ccc(OCC(=O)O)cc2)NC(=O)[C@H](Cc2ccc(C(=O)O)cc2)NC(=O)CSC[C@@H](C(=O)N[C@@H](CCN)C(=O)NCCOCCOCC(=O)N[C@@H](CCC(=O)NCCOCCOCC(=O)NCCCCCCCCCCCCC(=O)O)C(=O)O)NC(=O)[C@H](CC(=O)O)NC(=O)[C@H](C(C)(C)O)NC(=O)[C@H](CC2CCCCC2)NC(=O)[C@H](CCN)NC1=O` [Example 1182] ({CH2CO}-[Phe(4-COOH)]Y(Carboxymethyl)D[Phe(3-CF3)][Phe(4-COOH)][Bip]Q[NMeA][dL][Dab][Cha][Val(3-OH)]DC[Dab][AEEA][γGlu][AEEA]-{NH(CH2)12COOH}; thioether N-14), the half-inhibitory concentration (IC50) stood at 93 nM. The result for `CC(C)C[C@H]1NC(=O)[C@H](C)N(C)C(=O)[C@H](CCC(N)=O)NC(=O)[C@H](Cc2ccc(-c3ccccc3)cc2)NC(=O)[C@H](Cc2ccc(C(=O)O)cc2)NC(=O)[C@H](Cc2cccc(C(F)(F)F)c2)NC(=O)[C@H](CC(=O)O)NC(=O)[C@H](Cc2ccc(OCC(=O)O)cc2)NC(=O)[C@H](Cc2ccc(C(=O)O)cc2)NC(=O)CSC[C@@H](C(=O)N[C@@H](CCN)C(=O)NCCOCCOCC(=O)N[C@@H](CCC(=O)NCCOCCOCC(=O)NCCCCCCCCCCCCC(=O)O)C(=O)O)NC(=O)[C@H](CCC(=O)O)NC(=O)[C@H](C(C)C)NC(=O)[C@H](CC2CCCCC2)NC(=O)[C@H](CCN)NC1=O` [Example 1183] ({CH2CO}-[Phe(4-COOH)]Y(Carboxymethyl)D[Phe(3-CF3)][Phe(4-COOH)][Bip]Q[NMeA][dL][Dab][Cha]VEC[Dab][AEEA][γGlu][AEEA]-{NH(CH2)12COOH}; thioether N-14) reads 94.1 nM; that for `CC(C)C[C@H]1NC(=O)[C@H](C)N(C)C(=O)[C@H](CCC(N)=O)NC(=O)[C@H](Cc2ccc(-c3ccccc3)cc2)NC(=O)[C@H](Cc2ccc(C(=O)O)cc2)NC(=O)[C@H](Cc2cccc(C(F)(F)F)c2)NC(=O)[C@H](CC(=O)O)NC(=O)[C@H](Cc2ccc(OCC(=O)O)cc2)NC(=O)[C@H](Cc2ccc(C(=O)O)cc2)NC(=O)CSC[C@@H](C(=O)N[C@@H](CCN)C(=O)NCCOCCOCC(=O)N[C@@H](CCC(=O)NCCOCCOCC(=O)NCCCCCCCCCCCCC(=O)O)C(=O)O)NC(=O)[C@H](CO)NC(=O)[C@H](C(C)(C)O)NC(=O)[C@H](CC2CCCCC2)NC(=O)[C@H](CCN)NC1=O` [Example 1184] ({CH2CO}-[Phe(4-COOH)]Y(Carboxymethyl)D[Phe(3-CF3)][Phe(4-COOH)][Bip]Q[NMeA][dL][Dab][Cha][Val(3-OH)]SC[Dab][AEEA][γGlu][AEEA]-{NH(CH2)12COOH}; thioether N-14), 44 nM. For `CC(=O)NCCCC[C@@H]1NC(=O)[C@H](C(C)(C)O)NC(=O)[C@H](CC2CCCCC2)NC(=O)[C@H](CCN)NC(=O)[C@@H](CC(C)C)NC(=O)[C@H](C)N(C)C(=O)[C@H](CCC(N)=O)NC(=O)[C@H](Cc2ccc(-c3ccccc3)cc2)NC(=O)[C@H](Cc2ccc(C(=O)O)cc2)NC(=O)[C@H](Cc2cccc(C(F)(F)F)c2)NC(=O)[C@H](CC(=O)O)NC(=O)[C@H](Cc2ccc(OCC(=O)O)cc2)NC(=O)[C@H](Cc2ccc(C(=O)O)cc2)NC(=O)CSC[C@@H](C(=O)N[C@@H](CCN)C(=O)NCCOCCOCC(=O)N[C@@H](CCC(=O)NCCOCCOCC(=O)NCCCCCCCCCCCCC(=O)O)C(=O)O)NC1=O` [Example 1185] ({CH2CO}-[Phe(4-COOH)]Y(Carboxymethyl)D[Phe(3-CF3)][Phe(4-COOH)][Bip]Q[NMeA][dL][Dab][Cha][Val(3-OH)]K(Ac)C[Dab][AEEA][γGlu][AEEA]-{NH(CH2)12COOH}; thioether N-14), the IC50 came to 50.2 nM. As for `CC(C)C[C@H]1NC(=O)[C@H](C)N(C)C(=O)[C@H](CCCNC(N)=O)NC(=O)[C@H](Cc2ccc(-c3ccccc3)cc2)NC(=O)[C@H](Cc2ccc(C(=O)O)cc2)NC(=O)[C@H](Cc2cccc(C(F)(F)F)c2)NC(=O)[C@H](CC(=O)O)NC(=O)[C@H](Cc2ccc(OCC(=O)O)cc2)NC(=O)[C@H](Cc2ccc(C(=O)O)cc2)NC(=O)CSC[C@@H](C(=O)N[C@@H](CCN)C(=O)NCCOCCOCC(=O)N[C@@H](CCC(=O)NCCOCCOCC(=O)NCCCCCCCCCCCCC(=O)O)C(=O)O)NC(=O)[C@H](CC(=O)O)NC(=O)[C@H](C(C)(C)O)NC(=O)[C@H](CC2CCCCC2)NC(=O)[C@H](CCN)NC1=O` [Example 1186] ({CH2CO}-[Phe(4-COOH)]Y(Carboxymethyl)D[Phe(3-CF3)][Phe(4-COOH)][Bip][Cit][NMeA][dL][Dab][Cha][Val(3-OH)]DC[Dab][AEEA][γGlu][AEEA]-{NH(CH2)12COOH}; thioether N-14), the figure is 108 nM. On to `CC(C)C[C@H]1NC(=O)[C@H](C)N(C)C(=O)[C@H](CCCNC(N)=O)NC(=O)[C@H](Cc2ccc(-c3ccccc3)cc2)NC(=O)[C@H](Cc2ccc(C(=O)O)cc2)NC(=O)[C@H](Cc2cccc(C(F)(F)F)c2)NC(=O)[C@H](CC(=O)O)NC(=O)[C@H](Cc2ccc(OCC(=O)O)cc2)NC(=O)[C@H](Cc2ccc(C(=O)O)cc2)NC(=O)CSC[C@@H](C(=O)N[C@@H](CCN)C(=O)NCCOCCOCC(=O)N[C@@H](CCC(=O)NCCOCCOCC(=O)NCCCCCCCCCCCCC(=O)O)C(=O)O)NC(=O)[C@H](CO)NC(=O)[C@H](C(C)(C)O)NC(=O)[C@H](CC2CCCCC2)NC(=O)[C@H](CCN)NC1=O` [Example 1187] ({CH2CO}-[Phe(4-COOH)]Y(Carboxymethyl)D[Phe(3-CF3)][Phe(4-COOH)][Bip][Cit][NMeA][dL][Dab][Cha][Val(3-OH)]SC[Dab][AEEA][γGlu][AEEA]-{NH(CH2)12COOH}; thioether N-14), for which the IC50 was found to be 37.7 nM.

The term IC50 denotes the concentration at which inhibition is half-maximal.
